Entries after “also recorded” stand apart in the source; their conditions may differ.

In this assay the test system is clonally-derived CD1 neurospheres. The experiment in a line: CD1 neurosphere differentiation with caspase inhibitor: immunocytochemistry and immunoblot of neural markers. It is filed as cell-based, mouse. The settings on record: for nestin expression under differentiation conditions: early periods (48 h). As to the method: Neurosphere culture: clonally-derived neurospheres were generated from the striatum of E14.5 CD1 murine embryos according to methods previously described (Reynolds, B. A., and Weiss, S. (1996) Dev Biol 175, 1-13). The neurospheres were maintained in NeuroCult Proliferation Medium (StemCell Technologies, Canada) supplemented with 20 ng/ml basic fibroblast growth factor (bFGF) as per manufacturer's instructions.
Neurospheres were sub-cultured no more than once per collection. The differentiation of neurospheres was initated by plating spheres on poly-L-ornithine coated plates in NeuroCult Differentiation Medium in the absence of bFGF, as per manufacturer's instructions. […] All cultures received fresh media and inhibitor every 24 h for the duration of the experiment. Neurospheres from caspase 3 null embryos (Fernando, P., et al., (2002) Proc Natl Acad Sci USA 99, 11025-11030) were cultured as described above.
Immunocytochemistry: Neurospheres were collected at selected time points, fixed in 4% paraformaldehyde and prepared for immunostaining as previously described (Fernando, P., et al., (2002) Proc Natl Acad Sci USA 99, 11025-11030)). The primary antibody concentrations for anti-nestin, -GFAP, -MBP and -active caspase 3 (BioVision, USA) were titrated on wildtype CD1 neurospheres prior to their experimental use. These antibodies were visualized by counterstaining with either FITC or Cy3 conjugated secondary antibodies (Chemicon USA). Nuclei were localized with 4′,6-Diamidino-2 phenylindole (DAPI) (Sigma, USA). Cells were visualized using either an Axiovert 100 for transmission microscopy or Axioplan 2 for fluorescent microscopy (Zeiss, Germany) at selected magnifications. Captured images were processed using AxioVision Viewer 3.0 software.
Immunoblot Assays: Immunoblot analyses were performed as previously described (Fernando, P., et al., (2002) Proc Natl Acad Sci USA 99, 11025-11030). All samples were processed at 4° C. to maintain protein integrity. To generate neurosphere cell extracts, cultured neurospheres were collected at the indicated time points and solubilized in modified RIPA buffer containing protease and phosphatase inhibitors. Cells were sheared 4-5 times through a 21 gauge needle and mixed by 360° rotation at 4° C. for 30 minutes. Nestin 3 (AbCam, UK) was detected following the separation of total cellular proteins through a 6% acrylamide gel and Western transfer. Antibodies against neuronal class III […] and GFAP (AbCam, USA), active caspase 3 (BioVision, USA), 2′3′ cyclic nucleotide 3′ phosphohydrolase (CNPase) (Chemicon, USA) and p38α (Santa Cruz, USA) were used to detect proteins following separation by 10% polyacrylamide electrophoresis and Western transfer. In some instances, sample aliquots were sonicated following cell lysis in order to detect total cellular poly-ADP ribose polymerase (PARP) (BioVison, USA). Soluble PARP was assayed from unsonicated samples. Protein bands from Western blot assays were quantitated using Scion Image (Scion Corporation, USA).
On the technique in general: Immunoblotting shows a protein as a band on a membrane.

Setting [1] is: 2.0 μM inhibitor, differentiation media 48 h.

For the compound `COC(=O)CC[C@H](NC(=O)[C@H](CC(=O)OC)NC(=O)OCc1ccccc1)C(=O)N[C@H](C(=O)N[C@@H](CC(=O)OC)C(=O)CF)C(C)C` [z-DEVD.fmk], the GFAP expression result under setting [1] is “significant decrease; also recorded: fail to express the astrocyte marker protein GFAP”. For the same compound, under setting [1], the MBP expression result was “significant decrease; also recorded: fail to express the oligodendrocyte marker protein MBP”. The “nestin expression under differentiation conditions” value is “sustained expression of nestin; also recorded: remain in an early progenitor state and express nestin” (2.0 μM inhibitor, differentiation media); “remained elevated” (2.0 μM inhibitor, differentiation media, listed as DEVD); “remained elevated during the early periods of differentiation” (2.0 μM inhibitor, differentiation media, listed as z-DEVD). Moreover, the “nestin expression under growth conditions” value (2.0 μM inhibitor, growth conditions) is “did not affect nestin expression; also recorded: express nestin”. The “nestin after extended period in differentiation media” value (4 d, immunoblot) is given as “a decrease in nestin was observed”. Also, the “β-III tubulin level after 5 d” value (5 d differentiation, immunoblot) is recorded as “very low level of β-III tubulin was detectable”. Further, the “β-III tubulin (Tuj-1) accumulation” value (differentiation media, immunoblot, vs DMSO) is listed as “did not increase; also recorded: lower in caspase 3 inhibited samples relative to control”.
